Reference: ChEMBL document CHEMBL5608174, “Synthesis and biological evaluation of 4-phenyl-5-quinolinyl substituted isoxazole analogues as potent cytotoxic and tubulin polymerization inhibitors against ESCC” (Eur J Med Chem, 2024)

Key:
MGC-803 = assay: Antiproliferative activity against human MGC-803 cells assessed as inhibition of cell proliferation incubated for 48 hrs by MTT assay; assay type: functional, cell-based; conditions: MGC-803, 48 h
KYSE-30 = assay: cells; conditions: Homo sapiens, KYSE-30, 48 h
Description: Antiproliferative activity against human KYSE-30 cells assessed as inhibition of cell proliferation incubated for 48 hrs by MTT assay

HCT-116 = assay: cells; conditions: Homo sapiens, HCT-116, 48 h
Description: Antiproliferative activity against human HCT-116 cells assessed as inhibition of cell proliferation incubated for 48 hrs by MTT assay

[1] = Cytotoxicity against HUVEC cells assessed as inhibition of cell growth incubated for 48 hrs by MTT assay; assay type: toxicity, cell-based; conditions: human
[2] = Toxicity in female BALB/c-nu nude mouse xenografted with human KYSE-30 cells assessed as effect on body weight at 6 to 12 mg/kg, ip administered for 15 days; assay type: organism-based; conditions: in vivo, 360 h, dose 6-12 mg/kg, time 15 day

IC50 (MGC-803) [nM]	IC50 (KYSE-30) [nM]	IC50 (HCT-116) [nM]	SMILES	IC50 at 48 h [1] [nM]	Activity [2]
3240	491	740	Cc1cc(-c2[nH]ncc2-c2ccc3c(c2)CCO3)c2ccccc2n1	–	–
58	> 800	> 800	CCCOc1ccc(-c2cnoc2-c2cc(C)nc3ccccc23)cc1	–	–
59	287	381	CCOc1ccc(-c2[nH]nnc2-c2ccnc3ccccc23)cc1	–	–
> 10000	> 10000	> 10000	COc1ccccc1-c1[nH]nnc1-c1ccnc2ccccc12	–	–
> 10000	10000	> 10000	c1ccc2c(-c3[nH]ncc3-c3ccc4c(c3)CCO4)ccnc2c1	–	–
> 10000	> 10000	> 10000	c1ccc2c(-c3[nH]nnc3-c3ccc4sc5ccccc5c4c3)ccnc2c1	–	–
> 10000	> 10000	> 10000	Cc1ccccc1-c1nn[nH]c1-c1ccnc2ccccc12	–	–
28	194	2320	COc1ccc(-c2cnoc2-c2ccnc3ccccc23)cc1[N+](=O)[O-]	–	–
1960	7530	8580	COc1ccccc1-c1cnoc1-c1cc(C)nc2ccccc12	–	–
875	6410	6040	CCCOc1ccc(-c2cn[nH]c2-c2ccnc3ccccc23)cc1	–	–
> 800	> 800	> 800	COc1ccccc1-c1cn[nH]c1-c1cc(C)nc2ccccc12	–	–
410	> 800	> 800	Cc1cc(-c2oncc2-c2ccc3c(c2)CCO3)c2ccccc2n1	–	–
2530	4570	5420	COc1cccc(-c2cnoc2-c2ccnc3ccccc23)c1	–	–
1540	3190	5530	COc1cccc(-c2cn[nH]c2-c2ccnc3ccccc23)c1	–	–
32	21	24	COc1ccc(-c2nn[nH]c2-c2ccnc3ccccc23)cc1O	–	–
8460	3400	7760	c1ccc2c(-c3[nH]nnc3-c3ccc4occc4c3)ccnc2c1	–	–
188	178	211	c1ccc2c(-c3[nH]nnc3-c3ccc4[nH]ccc4c3)ccnc2c1	–	–
14	122	39	CCOc1ccc(-c2cnoc2-c2ccnc3ccccc23)cc1	–	–
39	92	68	COc1ccc(-c2cn[nH]c2-c2cc(C)nc3ccccc23)cc1	> 710	–
18	14	> 800	CCOc1ccc(-c2cnoc2-c2cc(C)nc3ccccc23)cc1	> 710	Non-Toxic
101	349	288	COc1cccc(-c2cnoc2-c2cc(C)nc3ccccc23)c1	–	–
293	403	245	COc1cccc(-c2cn[nH]c2-c2cc(C)nc3ccccc23)c1	–	–
489	1510	4500	CC(C)Oc1ccc(-c2cnoc2-c2ccnc3ccccc23)cc1	–	–
3360	244	705	CC(C)Oc1ccc(-c2nn[nH]c2-c2ccnc3ccccc23)cc1	–	–
1980	> 2510	> 10000	COc1ccc(-c2cn[nH]c2-c2ccnc3ccccc23)cc1[N+](=O)[O-]	–	–

The next lines start with the compound.

SMILES	IC50 (MGC-803) [nM]	IC50 (KYSE-30) [nM]	IC50 (HCT-116) [nM]	IC50 at 48 h [1] [nM]	Activity [2]
c1cc(-c2nn[nH]c2-c2ccnc3ccccc23)c2occc2c1	> 10000	> 10000	> 10000	–	–
COc1cccc(-c2[nH]nnc2-c2ccnc3ccccc23)c1	> 10000	> 10000	> 10000	–	–
c1ccc2c(-c3[nH]nnc3-c3ccc4oc5ccccc5c4c3)ccnc2c1	> 10000	> 10000	> 10000	–	–
COc1ccccc1-c1cnoc1-c1ccnc2ccccc12	> 10000	> 10000	> 10000	–	–
CCOc1ccc(-c2cn[nH]c2-c2cc(C)nc3ccccc23)cc1	31	65	44	> 710	–
c1ccc2c(-c3oncc3-c3ccc4c(c3)CCO4)ccnc2c1	2120	723	> 10000	–	–
Cc1cc(-c2[nH]ncc2-c2ccc(OC(C)C)cc2)c2ccccc2n1	330	> 800	> 800	–	–
Cc1ccc(-c2nn[nH]c2-c2ccnc3ccccc23)cc1	5800	1650	3680	–	–
CCOc1ccc(-c2cn[nH]c2-c2ccnc3ccccc23)cc1	249	3170	437	–	–
Cc1cccc(-c2nn[nH]c2-c2ccnc3ccccc23)c1	> 10000	> 10000	> 10000	–	–
COc1ccc(-c2cnoc2-c2cc(C)nc3ccccc23)cc1[N+](=O)[O-]	65	103	54	–	–
COc1ccccc1-c1cn[nH]c1-c1ccnc2ccccc12	> 10000	> 10000	> 10000	–	–
COc1ccc(-c2cn[nH]c2-c2ccnc3ccccc23)cc1	199	1020	958	–	–
CCCOc1ccc(-c2cn[nH]c2-c2cc(C)nc3ccccc23)cc1	130	> 800	90	–	–
COc1ccc(-c2cnoc2-c2ccnc3ccccc23)cc1	24	354	982	–	–
Cc1cc(-c2oncc2-c2ccc(OC(C)C)cc2)c2ccccc2n1	49	226	133	–	–
CCCOc1ccc(-c2cnoc2-c2ccnc3ccccc23)cc1	435	714	603	–	–
c1ccc2c(-c3[nH]nnc3-c3ccc4c(c3)CCO4)ccnc2c1	5690	6370	> 10000	–	–
c1ccc2c(-c3[nH]nnc3-c3ccc4sccc4c3)ccnc2c1	> 10000	> 10000	> 10000	–	–
COc1ccc(-c2[nH]nnc2-c2ccnc3ccccc23)cc1	153	1350	773	–	–
CC(C)Oc1ccc(-c2cn[nH]c2-c2ccnc3ccccc23)cc1	4830	> 10000	> 10000	–	–
c1ccc2c(-c3[nH]nnc3-c3ccc4[nH]c5ccccc5c4c3)ccnc2c1	> 10000	> 10000	> 10000	–	–
